{"source": "patent US20160340322A1", "about": "(NISSAN CHEMICAL INDUSTRIES, LTD., priority 2013, published 2016)"}
{"biological_target": "T1, Human T-type calcium channel (Cav 3.2) (Homo sapiens, UniProt O95180)", "T1 construct": "Edward Perez-Reyes, University of Virginia, USA; host or cells: HEK293", "T1 sequence (O95180 whole entry)": "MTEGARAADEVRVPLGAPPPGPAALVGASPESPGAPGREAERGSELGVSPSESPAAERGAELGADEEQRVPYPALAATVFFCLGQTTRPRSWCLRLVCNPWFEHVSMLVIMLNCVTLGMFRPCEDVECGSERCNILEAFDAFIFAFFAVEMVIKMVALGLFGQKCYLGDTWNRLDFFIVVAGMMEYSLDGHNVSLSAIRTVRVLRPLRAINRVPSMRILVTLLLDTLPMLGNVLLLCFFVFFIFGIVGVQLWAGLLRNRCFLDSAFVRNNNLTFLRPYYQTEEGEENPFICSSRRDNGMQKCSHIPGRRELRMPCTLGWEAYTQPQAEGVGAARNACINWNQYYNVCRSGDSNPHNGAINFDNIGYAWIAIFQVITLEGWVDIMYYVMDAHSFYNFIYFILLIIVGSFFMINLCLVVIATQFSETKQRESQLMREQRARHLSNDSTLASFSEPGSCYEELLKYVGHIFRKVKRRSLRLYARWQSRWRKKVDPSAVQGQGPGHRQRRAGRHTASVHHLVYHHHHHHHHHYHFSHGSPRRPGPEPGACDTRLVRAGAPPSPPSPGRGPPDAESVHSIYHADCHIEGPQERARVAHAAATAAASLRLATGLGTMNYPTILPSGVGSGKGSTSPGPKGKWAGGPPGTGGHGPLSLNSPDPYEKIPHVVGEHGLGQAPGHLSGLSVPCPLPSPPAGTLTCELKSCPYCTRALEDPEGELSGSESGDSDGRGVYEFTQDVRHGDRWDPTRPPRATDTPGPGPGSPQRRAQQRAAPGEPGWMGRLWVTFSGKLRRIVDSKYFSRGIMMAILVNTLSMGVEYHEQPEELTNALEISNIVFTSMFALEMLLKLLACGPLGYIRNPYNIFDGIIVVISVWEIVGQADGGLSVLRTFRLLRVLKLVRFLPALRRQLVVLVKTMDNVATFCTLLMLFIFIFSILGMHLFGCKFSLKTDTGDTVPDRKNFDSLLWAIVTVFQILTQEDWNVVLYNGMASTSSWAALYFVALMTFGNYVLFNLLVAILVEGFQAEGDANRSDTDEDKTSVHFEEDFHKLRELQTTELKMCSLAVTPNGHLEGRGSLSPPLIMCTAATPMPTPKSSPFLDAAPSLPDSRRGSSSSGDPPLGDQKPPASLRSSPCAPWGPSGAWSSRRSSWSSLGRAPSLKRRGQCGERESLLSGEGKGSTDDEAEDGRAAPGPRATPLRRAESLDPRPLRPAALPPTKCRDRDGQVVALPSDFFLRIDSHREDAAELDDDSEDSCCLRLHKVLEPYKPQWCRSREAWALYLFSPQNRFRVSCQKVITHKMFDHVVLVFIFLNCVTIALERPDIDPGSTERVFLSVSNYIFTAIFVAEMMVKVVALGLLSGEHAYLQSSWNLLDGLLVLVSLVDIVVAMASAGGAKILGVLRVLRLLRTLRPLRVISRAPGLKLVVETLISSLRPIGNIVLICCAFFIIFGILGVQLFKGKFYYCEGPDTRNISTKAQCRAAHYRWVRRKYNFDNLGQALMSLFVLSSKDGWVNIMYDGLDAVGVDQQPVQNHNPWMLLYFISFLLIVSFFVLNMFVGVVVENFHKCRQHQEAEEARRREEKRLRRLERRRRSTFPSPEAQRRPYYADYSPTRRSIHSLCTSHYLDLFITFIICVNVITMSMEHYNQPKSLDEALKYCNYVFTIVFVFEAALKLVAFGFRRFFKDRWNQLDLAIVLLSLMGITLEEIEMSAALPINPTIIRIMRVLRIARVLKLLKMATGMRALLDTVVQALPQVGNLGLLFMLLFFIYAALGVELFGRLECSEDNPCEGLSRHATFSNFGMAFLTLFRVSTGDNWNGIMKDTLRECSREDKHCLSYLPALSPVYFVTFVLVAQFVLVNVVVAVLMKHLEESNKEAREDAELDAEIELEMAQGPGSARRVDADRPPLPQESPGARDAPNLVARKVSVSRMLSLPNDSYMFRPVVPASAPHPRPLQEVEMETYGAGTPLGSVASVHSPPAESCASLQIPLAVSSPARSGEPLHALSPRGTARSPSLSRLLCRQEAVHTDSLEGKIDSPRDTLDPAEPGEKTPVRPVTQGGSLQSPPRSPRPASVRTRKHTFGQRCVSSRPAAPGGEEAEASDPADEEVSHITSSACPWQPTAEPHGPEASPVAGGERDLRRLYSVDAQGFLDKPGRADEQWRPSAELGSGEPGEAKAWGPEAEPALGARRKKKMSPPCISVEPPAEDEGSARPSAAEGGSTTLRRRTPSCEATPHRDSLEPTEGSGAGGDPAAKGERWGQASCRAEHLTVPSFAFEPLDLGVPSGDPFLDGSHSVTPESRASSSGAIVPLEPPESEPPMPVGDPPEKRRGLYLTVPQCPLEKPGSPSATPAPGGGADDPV", "test": "Calcium Influx Inhibition Assay", "format": "cell-based", "conditions": "human T-type calcium channel (Cav 3.2) expressing HEK293 cells; FLIPR Calcium 4 fluorescence; 30 min compound incubation; read-out: T-type calcium channel inhibition concentration IC50", "method": "1. Calcium Influx Inhibition Assay Human T-type calcium channel (Cav 3.2) expressing HEK293 cells were introduced from Prof. Edward Perez-Reyes, University of Virginia, USA. The calcium-sensitive fluorescent dye used was FLIPR Calcium 4 Assay Kit (Molecular Devices). To a black 96-well plate with a clear bottom coated with type I collagen, the human T-type calcium channel (Cav 3.2) expressing HEK293 cells were seeded and cultured overnight, and the culture medium was removed. A solution of the calcium-sensitive fluorescent dye was added, and the resultant plate was incubated at 37° C. in an atmosphere of 5% carbon dioxide for 30 minutes. To the plate, a diluted solution of a compound was added, and subjected to further incubation at 37° C. in an atmosphere of 5% carbon dioxide for 30 minutes. While fluorescence was continuously analyzed from the bottom with a FlexStation 3 (Molecular Devices), a calcium solution was added. […] Based on the rise value in the fluorescence from the base line, the inhibition percentage was calculated. The logarithms of compound concentrations were plotted with respect to the inhibition activities to obtain an IC50 value.", "units": {"IC50": "nM"}}
{"smiles": "O=c1nc(N2CCN(c3ccc(Cl)cc3)CC2)cnn1Cc1ccc(C(F)(F)F)s1", "note": "[Synthesis Example 41, 5-[4-(4-Chlorophenyl)piperazin-1-yl]-2-{[5-(trifluoromethyl)thiophen-2-yl]methyl}-1,2,4-triazin-3(2H)-one]", "IC50": 29}
{"smiles": "CCCCCCOc1ccc(Cn2ncc(N3CCN(c4ccc(F)cc4)CC3)nc2=O)cc1", "note": "[Synthesis Example 2, 5-[4-(4-Fluorophenyl)piperazin-1-yl]-2-[4-(hexyloxy)benzyl]-1,2,4-triazin-3(2H)-one]", "IC50": 38}
{"smiles": "O=c1nc(N2Cc3ccc(O)cc3C(O)C2)cnn1Cc1ccc(C(F)(F)F)s1", "note": "(centres unmarked) [Synthesis Example 25, 5-[4,6-Dihydroxy-3,4-dihydroisoquinolin-2(1H)-yl]-2-{[5-(trifluoromethyl)thiophen-2-yl]methyl}-1,2,4-triazin-3(2H)-one]", "IC50": 1800}
{"smiles": "CCOc1ccc2c(c1)C(O)CN(c1cnn(Cc3ccc(C(F)(F)F)s3)c(=O)n1)C2", "note": "(centres unmarked) [Synthesis Example 16]", "IC50": 180}
{"smiles": "CC(C)(C)c1ncc(Cn2ncc(N3CC=C(c4ccc(F)cc4)[C@@H](O)C3)nc2=O)o1", "note": "[Synthesis Example 50, (R)-2-{[2-(Tert-butyl)oxazol-5-yl]methyl}-5-[4-(4-fluorophenyl)-5-hydroxy-5,6-dihydropyridin-1(2H)-yl]-1,2,4-triazin-3(2H)-one]", "IC50": 62}
{"smiles": "Cn1ccc(C2=CCN(c3cnn(Cc4ccc(C(F)(F)F)s4)c(=O)n3)CC2)n1", "note": "[Synthesis Example 39, 5-[4-(1-Methyl-1H-pyrazol-3-yl)-5,6-dihydropyridin-1(2H)-yl]-2-{[5-(trifluoromethyl)thiophen-2-yl]methyl}-1,2,4-triazin-3(2H)-one]", "IC50": 1300}
{"smiles": "COc1nc(C2=CCN(c3cnn(Cc4ccc(C(F)(F)F)s4)c(=O)n3)C[C@@H]2O)ccc1Cl", "note": "[Synthesis Example 29, (R)-5-[5-Chloro-5′-hydroxy-6-methoxy-5′,6′-dihydro-(2,4′-bipyridine)-1′(2′H)-yl]-2-{[5-(trifluoromethyl)thiophen-2-yl]methyl}-1,2,4-triazin-3(2H)-one]", "IC50": 12}
{"smiles": "O=c1nc(N2CCc3cc(C(F)(F)F)ccc3C2)cnn1Cc1ccc(C(F)(F)F)s1", "note": "[Synthesis Example 53, 5-[6-(trifluoromethyl)-3,4-dihydroisoquinolin-2(1H)-yl]-2-{[5-(trifluoromethyl)thiophen-2-yl]methyl}-1,2,4-triazin-3(2H)-one]", "IC50": 170}
{"smiles": "Cc1nc(N2CCN(c3cnn(Cc4ccc(C(F)(F)F)s4)c(=O)n3)CC2)ccc1F", "note": "[Synthesis Example 33]", "IC50": 32}
{"smiles": "Cn1cc(C2=CCN(c3cnn(Cc4cnc(C(F)(F)F)s4)c(=O)n3)C[C@@H]2O)cn1", "note": "[Synthesis Example 24, (R)-5-[5-Hydroxy-4-(1-methyl-1H-pyrazol-4-yl)-5,6-dihydropyridin-1(2H)-yl]-2-{[2-(trifluoromethyl)thiazol-5-yl]methyl}-1,2,4-triazin-3(2H)-one]", "IC50": 4900}
{"smiles": "Cc1csc(C2=CCN(c3cnn(Cc4cnc(C(F)(F)F)s4)c(=O)n3)C[C@@H]2O)c1", "note": "[Synthesis Example 17]", "IC50": 200}
{"smiles": "O=c1nc(N2CCN(c3ccc(F)cc3)CC2)cnn1Cc1ccc(Cl)cc1", "note": "[Synthesis Example 1, 2-(4-Chlorobenzyl)-5-[4-(4-fluorophenyl)piperazin-1-yl]-1,2,4-triazin-3(2H)-one]", "IC50": 220}
{"smiles": "O=c1nc(N2CCN(c3ccc(F)c(Cl)c3)CC2)cnn1Cc1ccc(C(F)(F)F)s1", "note": "[Synthesis Example 34]", "IC50": 61}
{"smiles": "O=c1nc(N2CCN(c3ccc(F)cc3)CC2)cnn1Cc1cnc(C(F)(F)F)s1", "note": "[Synthesis Example 10, 5-[4-(4-Fluorophenyl)piperazin-1-yl]-2-{[2-(trifluoromethyl)thiazol-5-yl]methyl}-1,2,4-triazin-3(2H)-one]", "IC50": 490}
{"smiles": "O=c1nc(N2CC=C(c3ccc(F)c(Cl)c3)[C@@H](O)C2)cnn1Cc1cnc(C(F)(F)F)s1", "note": "[Synthesis Example 43, (R)-5-[4-(3-Chloro-4-fluorophenyl)-5-hydroxy-5,6-dihydropyridin-1(2H)-yl]-2-{[2-(trifluoromethyl)thiazol-5-yl]methyl}-1,2,4-triazin-3(2H)-one]", "IC50": 54}
{"smiles": "Cc1cc(N2CCN(c3cnn(Cc4cnc(C(F)(F)F)s4)c(=O)n3)CC2)cs1", "note": "[Synthesis Example 23, 5-[4-(5-Methylthiophen-3-yl)piperazin-1-yl]-2-{[2-(trifluoromethyl)thiazol-5-yl]methyl}-1,2,4-triazin-3(2H)-one]", "IC50": 670}
{"smiles": "O=c1nc(N2Cc3ccc(OC(F)F)cc3C(O)C2)cnn1Cc1cnc(C(F)(F)F)s1", "note": "(centres unmarked) [Synthesis Example 55]", "IC50": 1000}
{"smiles": "O=c1nc(N2CC=C(c3ccc(F)cc3)[C@@H](O)C2)cnn1Cn1ccc(C(F)(F)F)n1", "note": "[Synthesis Example 46, (R)-5-[4-(4-Fluorophenyl)-5-hydroxy-5,6-dihydropyridin-(2H)-yl]-2-{[3-(trifluoromethyl)-1H-pyrazol-1-yl]methyl}-1,2,4-triazin-3(2H)-one]", "IC50": 110}
{"smiles": "COc1ccc2c(c1)CCN(c1cnn(Cc3ccc(C(F)(F)F)s3)c(=O)n1)C2C", "note": "(centres unmarked) [Synthesis Example 42, 5-[6-Methoxy-1-methyl-3,4-dihydroisoquinolin-2(1H)-yl]-2-{[5-(trifluoromethyl)thiophen-2-yl]methyl}-1,2,4-triazin-3(2H)-one]", "IC50": 600}
{"smiles": "CC(C)(C)c1ccc(Cn2ncc(N3CC=C(c4ccc(F)cc4)[C@@H](O)C3)nc2=O)s1", "note": "[Synthesis Example 48, (R)-2-{[5-(Tert-butyl)thiophen-2-yl]methyl}-5-[4-(4-fluorophenyl)-5-hydroxy-5,6-dihydropyridin-(2H)-yl]-1,2,4-triazin-3(2H)-one]", "IC50": 6.4}
{"smiles": "Cc1cc(F)ccc1C1=CCN(c2cnn(Cc3ccc(C(F)(F)F)s3)c(=O)n2)C[C@@H]1O", "note": "[Synthesis Example 30, (R)-5-[4-(4-Fluoro-2-methylphenyl)-5-hydroxy-5,6-dihydropyridin-1(2H)-yl]-2-{[5-(trifluoromethyl)thiophen-2-yl]methyl}-1,2,4-triazin-3(2H)-one]", "IC50": 72}
{"smiles": "O=c1nc(N2CC=C(c3ccc(F)cc3)[C@@H](O)C2)cnn1Cc1ccc(C(F)(F)F)s1", "note": "[Synthesis Example 7, (R)-5-[4-(4-Fluorophenyl)-5-hydroxy-5,6-dihydropyridin-1(2H)-yl]-2-{[5-(trifluoromethyl)thiophene-2-yl]methyl}-1,2,4-triazin-3(2H)-one]", "IC50": 6}
{"smiles": "Cc1cc(N2CCN(c3cnn(Cc4ccc(C(F)(F)F)s4)c(=O)n3)CC2)cs1", "note": "[Synthesis Example 40, 5-[4-(5-Methylthiophen-3-yl)piperazin-1-yl]-2-{[5-(trifluoromethyl)thiophen-2-yl]methyl}-1,2,4-triazin-3(2H)-one]", "IC50": 69}
{"smiles": "Cc1ccc(C2=CCN(c3cnn(Cc4ccc(C(F)(F)F)s4)c(=O)n3)C[C@@H]2O)o1", "note": "[Synthesis Example 37, (R)-5-[5-Hydroxy-4-(5-methylfuran-2-yl)-5,6-dihydropyridin-(2H)-yl]-2-{[5-(trifluoromethyl)thiophen-2-yl]methyl}-1,2,4-triazin-3(2H)-one]", "IC50": 4.8}
{"smiles": "COc1cccc(C2=CCN(c3cnn(Cc4ccc(C(F)(F)F)s4)c(=O)n3)C[C@@H]2O)n1", "note": "[Synthesis Example 32]", "IC50": 48}
{"smiles": "Cc1cc(C2=CCN(c3cnn(Cc4ccc(C(F)(F)F)s4)c(=O)n3)C[C@@H]2O)cs1", "note": "[Synthesis Example 15, (R)-5-[5-Hydroxy-4-(5-methylthiophen-3-yl)-5,6-dihydropyridin-1(2H)-yl]-2-{[5-(trifluoromethyl)thiophen-2-yl]methyl}-1,2,4-triazin-3(2H)-one]", "IC50": 1}
{"smiles": "O=c1nc(N2CCN(c3ccc(F)cc3)CC2)cnn1Cc1ccc(OCc2ccc(F)cc2)cc1", "note": "[Synthesis Example 4, 2-{4-[(4-Fluorobenzyl)oxy]benzyl}-5-[4-(4-fluorophenyl)piperazin-1-yl]-1,2,4-triazin-3(2H)-one]", "IC50": 35}
{"smiles": "O=c1nc(N2CC=C(c3ccc(F)cc3)CC2)cnn1Cc1ccc(C(F)(F)F)s1", "note": "[Synthesis Example 6, 5-[4-(4-Fluorophenyl)-5,6-dihydropyridine-1(2H)-yl]-2-{[5-(trifluoromethyl)thiophen-2-yl]methyl}-1,2,4-triazin-3(2H)-one]", "IC50": 24}
{"smiles": "O=c1nc(N2CC=C(c3ccc(F)c(Cl)c3)[C@@H](O)C2)cnn1Cc1ccc(C(F)(F)F)s1", "note": "[Synthesis Example 54, (R)-5-[4-(3-Chloro-4-fluorophenyl)-5-hydroxy-5,6-dihydropyridin-1(2H)-yl]-2-{[5-(trifluoromethyl)thiophen-2-yl]methyl}-1,2,4-triazin-3(2H)-one]", "IC50": 3.1}
{"smiles": "COc1ccc2c(c1)CCN(c1cnn(Cc3cnc(C(F)(F)F)s3)c(=O)n1)C2C", "note": "(centres unmarked) [Synthesis Example 19]", "IC50": 2200}
{"smiles": "O=c1nc(N2CC=C(c3ccc(F)cc3)[C@@H](O)C2)cnn1Cn1cc(Cl)cn1", "note": "[Synthesis Example 47, (R)-2-[(4-Chloro-1H-pyrazol-1-yl)methyl]-5-[4-(4-fluorophenyl)-5-hydroxy-5,6-dihydropyridin-1(2H)-yl]-1,2,4-triazin-3(2H)-one]", "IC50": 2600}
{"smiles": "Cc1ccc(C2=CCN(c3cnn(Cc4cnc(C(F)(F)F)s4)c(=O)n3)C[C@@H]2O)cc1F", "note": "[Synthesis Example 45, (R)-5-[4-(3-Fluoro-4-methylphenyl)-5-hydroxy-5,6-dihydropyridin-1(2H)-yl]-2-{[2-(trifluoromethyl)thiazol-5-yl]methyl}-1,2,4-triazin-3(2H)-one]", "IC50": 130}
